Columns and labels:
LLC tumor = LLC tumor growth under Doxorubicin, plasma DNA of chemotherapy-treated mice and DNase I (Example 14); type: in vivo, C57B1 mice
Description: Blood plasma DNA of tumor-bearing mice was received according to technique described above. Highly metastatic and low metastatic stains of mice' Luice lung carcinoma and Erlich carcinoma were used. Cells were cultivated in RPMI-1640 media with adding of 10% embryonic calf serum, 1% penicillin—streptomycin in 5% carbon dioxide atmosphere. For tumor induction in mice, cells were cultivated until the monolayer, than were detached with trypsin-EDTA solution. Cells were washed trice by centrifuging in phosphate buffer and were resuspensed until their concentration have become 0.5×10^7/ml. Viability was defined by inclusion of methylene blue in hemocytometer. Suspensions that contained 95% of viable cells were used for administration to animals.
Mice of C57B1 line and white not thoroughbred mice from “Rappolovo” animal house were used. Weight of animals was 24-26 grams. Animals were contained in cages, for 6-7 mice per one cage on a standard diet without water restriction. LLC cells in dose of 5×10^5 in 100 mkl of phosphate buffer were injected in soft tissues of thigh. Erlich tumor was subcutaneously replanted on the right side by injection of 0.2 ml 10% cells' suspension in isotonic sodium chloride solution.

Erlich carcinoma = test: Combined use of DNase and Doxorubicin, Erlich tumor growth (Example 3); type: in vivo, mice; details: Doxorubicin 2 mg/kg intravenously once a day and/or DNase 0.5 mg/kg intraperitoneally four times a day, day 3 to 7; 7th day after transplantation
Experimental: Bovine pancreatic DNase I (Fermentas) and human recombinant DNase […]) were used. DNase I solution for injections were prepared by dissolving of DNase matrix solution in sterile phosphate buffer directly before administration. […] Blood plasma DNA of tumor-bearing mice was received according to technique described above. Highly metastatic and low metastatic stains of mice' Luice lung carcinoma and Erlich carcinoma were used. […] For tumor induction in mice, cells were cultivated until the monolayer, than were detached with trypsin-EDTA solution. Cells were washed trice by centrifuging in phosphate buffer and were resuspensed until their concentration have become 0.5×10^7/ml. Viability was defined by inclusion of methylene blue in hemocytometer. […] Mice of C57B1 line and white not thoroughbred mice from “Rappolovo” animal house were used. Weight of animals was 24-26 grams. Animals were contained in cages, for 6-7 mice per one cage on a standard diet without water restriction. LLC cells in dose of 5×10^5 in 100 mkl of phosphate buffer were injected in soft tissues of thigh. […] Group 1-10 mice transplanted with Erlich carcinoma (control). Group 2-10 mice replanted with Erlich carcinoma. […] Group 3-10 mice replanted with Erlich carcinoma. […] Group 4-10 mice replanted with Erlich carcinoma. […] Results of experiments were estimated according to tumor's growth inhibition (TGI) that were expressed in percents to control data received at last day of DNase injection with standard formula using.

P-glycoprotein = P-glycoprotein expression in Erlich carcinoma, immunohistochemical staining (Example 13); type: in vivo, mice; details: 5 day therapy from 3rd day: Doxorubicin 2 mg/kg intravenously daily, DNase I 0.5 mg/kg four times a day; tissue on 8th day
Experimental: Mice were subjected to course of 5 day therapy with Doxorubicin (2 mg/kg intravenously daily) or Doxorubicin+DNase I (0.5 mg/kg four times a day during 5 days)
Tissue preparations were executed on the 8th day of tumor's transplantation.

[1] = Toxic effect of human DNase I injection on animals; type: in vivo; details: single and multiple injection of up to 2.5 mg/kg
[2] = Influence of DNase I therapy on old rats' life time (Example 19); type: in vivo; details: 24 month old rats, 500 mg/kg intravenously 2 times a week during 2 months
Experimental: White not thoroughbred 24 month old rats were used in experiment. In the study group (10 animals) rats starting from the age of 24 months were subjected to intravenous administration of polysialated human DNase I at […] (equivalent dose of non-modified enzyme) 2 times a week during 2 months. Control group of animals got the administration of placebo. Average life time of rats from control group was 27.8 months. Average life time of rats from experimental group was 30.1 months.

O=P1(N(CCCl)CCCl)NCCCO1 (centres unmarked) [Cyclophosphamide]
tumor inhibition at day 8 (LLC tumor; mouse, in vivo): 30%

COc1cccc2c1C(=O)c1c(O)c3c(c(O)c1C2=O)C[C@@](O)(C(=O)CO)C[C@@H]3O[C@H]1C[C@H](N)[C@H](O)[C@H](C)O1 [Doxorubicin]
T% (tumor's growth inhibition) (Erlich carcinoma): 42% | Tumor's volume (Erlich carcinoma): 57 +/− 10 | P-glycoprotein expression in tumor tissue (P-glycoprotein): Multifocal expression | Tumor's size (LLC tumor; 8th day after transplantation, Doxorubicin 2 mg/kg i.v. daily day 3-8, DNA 0.05 mkg i.v. day 1 and 3 of treatment, DNase I 0.5 mg/kg i.p. 4 times a day, first and second days): 67 +/− 7 | tumor inhibition at day 8 (LLC tumor; Doxorubicin 2 mg/kg daily for 5 days from day 3, Cyclophosphamide 15 mg/kg intraperitoneally once on 3rd day): 50%

B1: human DNase I: human recombinant DNase I (Dornase; Gentech) (protein, UniProt P24855 23-282, looked up)
Deoxyribonuclease-1: LKIAAFNIQTFGETKMSNATLVSYIVQILSRYDIALVQEVRDSHLTAVGKLLDNLNQDAPDTYHYVVSEPLGRNSYKERYLFVYRPDQVSAVDSYYYDDGCEPCGNDTFNREPAIVRFFSRFTEVREFAIVPLHAAPGDAVAEIDALYDVYLDVQEKWGLEDVMLMGDFNAGCSYVRPSQWSSIRLWTSPTFQWLIPDSADTTATPTHCAYDRIVVAGMLLRGAVVPDSALPFNFQAAYGLSDQLAQAISDHYPVEVMLK
Toxic effect on animals [1]: no toxic effect

B2: polysialated human DNase I: polysialated human DNase I, dose as equivalent of non-modified enzyme (protein, UniProt P24855 23-282, looked up)
Deoxyribonuclease-1: LKIAAFNIQTFGETKMSNATLVSYIVQILSRYDIALVQEVRDSHLTAVGKLLDNLNQDAPDTYHYVVSEPLGRNSYKERYLFVYRPDQVSAVDSYYYDDGCEPCGNDTFNREPAIVRFFSRFTEVREFAIVPLHAAPGDAVAEIDALYDVYLDVQEKWGLEDVMLMGDFNAGCSYVRPSQWSSIRLWTSPTFQWLIPDSADTTATPTHCAYDRIVVAGMLLRGAVVPDSALPFNFQAAYGLSDQLAQAISDHYPVEVMLK
modifications: polysialylated
notes: polysialated human DNase I, dose as equivalent of non-modified enzyme
Average life time [2]: 30.1 months

From US20080004561A1, “Method for Treating Oncological, Virulent and Somatic Diseases, Method for Controlling Treatment Efficiency, Pharmaceutical Agents and Composition for Carrying Out Said Treatment” (priority 2005, published 2008)
